The results in this text go back to ChEMBL document CHEMBL1155278, “3,4-Diaryl-isoxazoles and -imidazoles as potent dual inhibitors of p38alpha mitogen activated protein kinase and casein kinase 1delta” (J Med Chem, 2009).

The target in assay [1] is Casein kinase I isoform delta (Homo sapiens, UniProt P48730). Nature of the assay: Inhibition of recombinant CK1delta kinase domain at 10 nM by ATP competitive binding assay.
In assay [2] the target is Casein kinase I isoform delta (Rattus norvegicus) (UniProt Q06486). The assay can be described thus: Inhibition of GST-fused rat CK1delta at 10 nM by Cherenkov counting in presence of 20 uM ATP.
Sequence of Casein kinase I isoform delta (Rattus norvegicus) (Q06486 whole entry, looked up, the tested form may be a part, canonical isoform): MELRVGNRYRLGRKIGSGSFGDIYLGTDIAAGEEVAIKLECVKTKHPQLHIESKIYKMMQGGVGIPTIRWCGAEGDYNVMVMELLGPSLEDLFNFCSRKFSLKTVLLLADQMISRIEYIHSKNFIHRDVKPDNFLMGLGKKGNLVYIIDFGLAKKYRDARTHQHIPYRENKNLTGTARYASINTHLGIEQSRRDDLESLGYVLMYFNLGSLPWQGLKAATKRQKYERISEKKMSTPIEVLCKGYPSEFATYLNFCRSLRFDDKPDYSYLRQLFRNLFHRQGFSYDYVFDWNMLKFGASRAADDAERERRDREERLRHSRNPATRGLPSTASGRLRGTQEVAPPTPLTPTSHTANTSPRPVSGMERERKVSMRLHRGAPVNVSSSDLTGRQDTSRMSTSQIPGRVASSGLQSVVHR
Assay [3] can be described thus: Cell cycle arrest in human AC1-M88 cells assessed as accumulation at S phase at 0.26 uM after 48 hrs by propidium iodide staining-based FACS analysis. It counts as functional. (In general: Flow cytometry measures light scatter and fluorescence of single cells or particles in a stream.)
Assay [4] is described as follows: Cell cycle arrest in human AC1-M88 cells assessed as accumulation at G1 phase at 0.38 uM after 48 hrs by propidium iodide staining-based FACS analysis. It counts as functional.
Assay [5] can be described thus: Cell cycle arrest in human AC1-M88 cells assessed as accumulation at G2 phase at 0.38 uM after 48 hrs by propidium iodide staining-based FACS analysis. The class given is functional.
Assay [6] deals with Casein kinase I isoform delta (Rattus norvegicus), Q06486 [M82F]. The note with it: 5 nM.
Sequence of Casein kinase I isoform delta (Rattus norvegicus), Q06486 [M82F] (Q06486 whole entry M82F, canonical isoform): as the sequence (Q06486 whole entry, looked up, the tested form may be a part, canonical isoform) above, with M82F counted along it

Calls of active or inactive are those of the source. No cut-off for these calls is given here.

Sequence of Casein kinase I isoform delta (P48730 whole entry, looked up, the tested form may be a part, canonical isoform): as the sequence (Q06486 whole entry, looked up, the tested form may be a part, canonical isoform) above, with V381I counted along it

Usually inhibition stands for how much of the control response was suppressed. Consider `COc1ccc(/C=C/C(=O)Nc2cc(-c3[nH]c([S+](C)[O-])nc3-c3ccc(F)cc3)ccn2)c(OC)c1` (stereo unspecified), for which the inhibition in assay [1] came out at 10%. Moreover, in assay [2], the inhibition result was “Active”. Moreover, the Activity in assay [3] was determined as 3.95%.

With `COc1ccc(/C=C/C(=O)Nc2cc(-c3[nH]c(SC)nc3-c3ccc(F)cc3)ccn2)c(OC)c1`, the Activity in assay [4] came out at 6.3%; in assay [5], 3.08%. Further, the inhibition result in assay [6] is “inactive”.
